Source: patent publication US20260365699A1, “Compound Production Method” (The University of Tokyo, priority 2022, published 2026)
Each block holds one compound with its values, some of them ahead of it. *1 amine or outer side, *2 acyl side, *3 side chain or, on linkers, in order; H or OH if unused. Where a SMILES comes first, the peptide text is derived from it. Bridges are numbered along the chain shown (N, C = ends). [ ]: non-standard residue; d: D form. The star is where a group is joined. X2 = C=C(N[*:2])c1nc(-c2nc(-c3nc(C(=O)NCCC(=O)NCCOCCOCCCCCCCl)cs3)ccc2C(=O)[*:1])cs1; X1 = C=C(N[*:2])c1nc(-c2nc(-c3nc(C(=O)OC)cs3)ccc2C(=O)[*:1])cs1; Nle = CCCC[C@H](N)C(=O)O; Dhb = C/C=C(\N)C(=O)O; Dha = C=C(N)C(=O)O; Cam = NC(=O)C*

Legend:
[1] = system: NF-kB signaling pathway in THP-1 cells; test: Inhibition of NFkB reporter gene activity in THP1-XBlue stable cell line; format: cell-based, human
Source text: (§1) FIG. 11(a) illustrates TL12 which is a lactazole-like binder of TLR10, retrosynthesis thereof, and amino acid building blocks used. FIG. 11(b) illustrates a binding affinity (KD value) to IRAK4 and an inhibition (IC50) by the synthesized thiopeptide. The half-life (τ1/2) in the human serum and the inhibition (IC50) of the NF-kB signaling pathway in THP-1 cells are also shown. These values were obtained by non-linear regression of the experimental data.: The shaded C in IR4 is hGln (which is a product of IAA alkylation of Cys, but is replaced by homoglutamine); the shaded M in IR15 is Nle (in which Met is replaced by Nle); and the shaded T in IR15 represents a Dhb residue. […] FIG. 11(c) illustrates the binding affinity (KD value) to TLR10 and the half-life (τ1/2) in the human serum.: The shaded C in TL1, TL8, and TL16 is hGln (a product of IAA alkylation of Cys, but is replaced by homoglutamine); the shaded M in TL8, TL11, TL12, TL13, and TL18 is Nle (in which Met is replaced by Nle); the shaded S in 8S of TL11 and TL12 represents a Dha residue; and the shaded S in 9S of TL12 represents an oxazole. […] FIG. 11(d) illustrates the results of a CAPA assay of IR1, IR15, and TP8. The assay was carried out in HEK293T cells.
(§2) Finally, the cell activity of the thiopeptide against IRAK4, which is an intracellular target protein localized in the cytoplasm and the cell nucleus, was examined. […]

HEK293T cells = test: Chloroalkane penetration assay (CAPA) in HEK293T cells; format: cell-based, human; details: compared with Tat
Source text: as §1, §2

TNIK pSer764 = test: Immunoblotting of TNIK pSer764 (TNIK autophosphorylation) in HCT116 cells; format: cell-based, human; details: 20 μM of TP15, 24 hours, immunoblotting
Experimental: (§3) The sub-confluent HCT116 cells were treated with the indicated compounds for 24 hours and the cellular levels of TNIK, TNIK pSer764 (autophosphorylation product), c-Myc, and Axin2 were analyzed by an immunoblotting method (FIG. 7(b)) and RT-qPCR (FIG. 7(c)).
Nat. Commun. 2016, 7, 12586).

TNIK [2] = test: TNIK protein level in HCT116 cells (immunoblotting); format: cell-based, human
Experimental: as §3

TNIK mRNA = TNIK mRNA level in HCT116 cells (RT-qPCR); format: cell-based, human
Experimental: as §3

HEK293H cells = test: Chloroalkane penetration assay (CAPA) in HEK293H cells; format: cell-based, human; details: chloroalkane-labeled derivatives
Experimental: as §3
Next, it was confirmed whether or not the obtained compound could also access an intracellular target protein (TNIK is localized in the cytoplasm and the cell nucleus) in a human cell model. First, a chloroalkane penetration assay (CAPA) was performed on 4 types (TP1-ct, TP8-ct, TP14-ct, and TP15-ct) out of the 6 types of chloroalkane-labeled thiopeptide derivatives shown in FIG. 5 in order to measure an uptake degree into the cytoplasm (Peraro, L.; Deprey, K. L.; Moser, M. K.; Zou, Z.; Ball, H. L.; Levine, B.; and Kritzer, J. A. Cell Penetration Profiling Using the Chloroalkane Penetration Assay. J. Am. Chem. Soc. 2018, 140, 11360-11369).

TNIK [3] = molecular target: TNIK (Homo sapiens, UniProt Q9UKE5); test: Surface plasmon resonance (SPR) binding affinity to TNIK; details: saturated concentration of ATP (1 mM; 15-fold higher than KM)
Sequence of TNIK (Homo sapiens, UniProt Q9UKE5) (Q9UKE5 whole entry): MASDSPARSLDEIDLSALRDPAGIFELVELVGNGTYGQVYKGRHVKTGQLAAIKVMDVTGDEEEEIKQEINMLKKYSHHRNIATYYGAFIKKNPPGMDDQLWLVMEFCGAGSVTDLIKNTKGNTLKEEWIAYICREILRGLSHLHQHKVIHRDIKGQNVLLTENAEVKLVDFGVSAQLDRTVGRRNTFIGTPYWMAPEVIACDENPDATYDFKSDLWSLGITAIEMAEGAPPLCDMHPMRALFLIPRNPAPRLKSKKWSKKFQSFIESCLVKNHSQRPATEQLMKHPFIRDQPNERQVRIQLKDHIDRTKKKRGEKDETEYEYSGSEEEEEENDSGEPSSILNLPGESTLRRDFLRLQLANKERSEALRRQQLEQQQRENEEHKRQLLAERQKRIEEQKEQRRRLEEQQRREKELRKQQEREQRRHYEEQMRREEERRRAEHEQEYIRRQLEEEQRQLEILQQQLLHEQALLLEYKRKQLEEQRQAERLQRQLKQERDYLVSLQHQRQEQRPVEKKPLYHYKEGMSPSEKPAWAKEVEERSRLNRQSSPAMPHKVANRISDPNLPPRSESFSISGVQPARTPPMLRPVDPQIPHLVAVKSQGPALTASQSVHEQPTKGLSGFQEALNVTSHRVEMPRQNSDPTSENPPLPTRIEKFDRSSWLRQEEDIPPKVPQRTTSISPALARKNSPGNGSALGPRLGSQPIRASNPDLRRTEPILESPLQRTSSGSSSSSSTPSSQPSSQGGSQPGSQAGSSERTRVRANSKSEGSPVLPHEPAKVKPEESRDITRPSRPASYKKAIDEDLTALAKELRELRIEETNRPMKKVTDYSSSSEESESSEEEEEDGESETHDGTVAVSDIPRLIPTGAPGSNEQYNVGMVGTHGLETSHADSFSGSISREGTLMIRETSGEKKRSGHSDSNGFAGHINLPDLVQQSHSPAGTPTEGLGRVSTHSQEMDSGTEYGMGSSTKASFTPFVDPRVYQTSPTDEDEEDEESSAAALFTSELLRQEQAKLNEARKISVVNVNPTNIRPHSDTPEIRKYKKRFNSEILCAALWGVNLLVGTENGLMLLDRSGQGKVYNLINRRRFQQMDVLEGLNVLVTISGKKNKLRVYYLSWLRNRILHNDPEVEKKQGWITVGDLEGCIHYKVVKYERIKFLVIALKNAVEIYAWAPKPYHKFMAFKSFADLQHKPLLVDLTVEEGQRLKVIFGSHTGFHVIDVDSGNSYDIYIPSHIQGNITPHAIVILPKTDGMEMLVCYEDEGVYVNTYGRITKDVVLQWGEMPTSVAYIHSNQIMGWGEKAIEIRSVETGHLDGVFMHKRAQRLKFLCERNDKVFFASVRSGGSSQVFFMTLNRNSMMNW
Source text: Surface plasmon resonance (SPR) was used to evaluate the binding affinity of the thiopeptide synthesized in Example 2 to TNIK.

[4] = Stability / reactivity towards glutathione (GSH), LC/MS; format: physicochemical; details: for reactivity with GSH, in words: increasing concentration of glutathione (GSH)
[5] = Metabolic stability in human serum (LC/MS); format: in vitro ADME; details: 37 °C
Experimental: The compounds were incubated with a human serum at 37 °C, and the amount of the residual test substance at various points in time was quantified by LC/MS with respect to an internal standard substance. […] Next, it was examined whether or not the half-lives of the compounds were affected by the reactivity of the Dha residue. The Dha residue may be conjugated with various serum thiols.
In addition, the metabolic stability of all of the 14 types of candidate thiopeptides was examined. The compound was incubated with the human serum at 37 °C, and the amount of the residual thiopeptide at various points in time was quantified by LC/MS with respect to the internal standard substance. The half-life of the thiopeptide for TLR10 was generally as long as 38.2 hours, and the thiopeptide was stable.

Structure (SMILES): C=C1NC(=O)[C@H](CCCCN)NC(=O)[C@H](Cc2ccc(O)cc2)NC(=O)[C@H]([C@@H](C)CC)NC(=O)[C@H](CCCNC(=N)N)NC(=O)[C@H](CCCNC(=N)N)NC(=O)[C@H](CCCCN)NC(=O)[C@H](Cc2ccccc2)NC(=O)[C@H](CC(C)C)NC(=O)[C@H](CCSC)NC(=O)[C@H](CO)NC(=O)[C@H](Cc2c[nH]c3ccccc23)NC(=O)c2ccc(-c3nc(C(=O)NCCC(=O)NCCOCCOCCCCCCCl)cs3)nc2-c2csc1n2 [IR1-ct] (WSMLFKRRIYK; linker N-C via X2)
inhibition of NFkB reporter gene activity, in words [1]: significant inhibition

Structure (SMILES): C=C1NC(=O)/C(=C/C)NC(=O)[C@H](Cc2c[nH]c3ccccc23)NC(=O)[C@H](Cc2c[nH]cn2)NC(=O)[C@H](Cc2c[nH]c3ccccc23)NC(=O)[C@H]([C@@H](C)O)NC(=O)[C@H]([C@@H](C)CC)NC(=O)[C@H](Cc2ccccc2)NC(=O)[C@H](CCC(N)=O)NC(=O)[C@H](CCCNC(=N)N)NC(=O)[C@H](CCCCN)NC(=O)[C@H](CCCC)NC(=O)[C@H](CO)NC(=O)[C@H](Cc2c[nH]c3ccccc23)NC(=O)c2ccc(-c3nc(C(=O)NCCC(=O)NCCOCCOCCCCCCCl)cs3)nc2-c2csc1n2 [IR15-ct] (WS[Nle]KRQFITWHW[Dhb]; linker N-C via X2)
inhibition of NFkB reporter gene activity, in words [1]: significant inhibition

uptake into HEK293T cells relative to Tat (HEK293T cells; in the presence of serum): 2 fold
Structure (SMILES): C=C1NC(=O)/C(=C/C)NC(=O)[C@H](Cc2c[nH]c3ccccc23)NC(=O)[C@H](Cc2c[nH]cn2)NC(=O)[C@H](Cc2c[nH]c3ccccc23)NC(=O)[C@H]([C@@H](C)O)NC(=O)[C@H]([C@@H](C)CC)NC(=O)[C@H](Cc2ccccc2)NC(=O)[C@H](CCC(N)=O)NC(=O)[C@H](CCCNC(=N)N)NC(=O)[C@H](CCCCN)NC(=O)[C@H](CCCC)NC(=O)[C@H](CO)NC(=O)[C@H](Cc2c[nH]c3ccccc23)NC(=O)c2ccc(-c3nc(C(=O)OC)cs3)nc2-c2csc1n2 [IR15] (WS[Nle]KRQFITWHW[Dhb]; linker N-C via X1)
uptake into cytoplasm of HEK293T cells, in words (HEK293T cells): taken up into the cytoplasm of HEK293T cells much more efficiently than Tat

Structure (SMILES): OC1CCC(Oc2cccc3cnc(Nc4ccc5nc[nH]c5c4)nc23)CC1 (centres unmarked) [NCB0846, reference compound]
level of TNIK pSer764 (TNIK pSer764): the same
overall expression of TNIK, protein level (TNIK [2]): down-regulated
overall expression of TNIK, mRNA level (TNIK mRNA): down-regulated

Structure (SMILES): C=C1NC(=O)C(=C)NC(=O)[C@H](CCCCN)NC(=O)[C@H](CC(C)C)NC(=O)[C@H]([C@@H](C)O)NC(=O)[C@H](CCCCN)NC(=O)[C@H](Cc2ccc(O)cc2)NC(=O)[C@H]([C@@H](C)CC)NC(=O)[C@H](Cc2ccccc2)NC(=O)CNC(=O)[C@H](Cc2c[nH]c3ccccc23)NC(=O)c2ccc(-c3nc(C(=O)NCCC(=O)NCCOCCOCCCCCCCl)cs3)nc2-c2csc(n2)C(=C)NC(=O)CNC1=O [TP1-ct] (WGFIYKTLK[Dha][Dha]G; linker N-C via X2)
cytoplasmic uptake (CAPA), in words (HEK293H cells): taken up into HEK293H cells at a concentration of a single-digit μM

cytoplasmic uptake (CAPA), in words (HEK293H cells): efficient cytoplasmic translocation
reactivity with GSH, in words [4]: Dha11 and Dha12 in TP1 react with GSH
Structure (SMILES): C=C1NC(=O)C(=C)NC(=O)[C@H](CCCCN)NC(=O)[C@H](CC(C)C)NC(=O)[C@H]([C@@H](C)O)NC(=O)[C@H](CCCCN)NC(=O)[C@H](Cc2ccc(O)cc2)NC(=O)[C@H]([C@@H](C)CC)NC(=O)[C@H](Cc2ccccc2)NC(=O)CNC(=O)[C@H](Cc2c[nH]c3ccccc23)NC(=O)c2ccc(-c3nc(C(=O)OC)cs3)nc2-c2csc(n2)C(=C)NC(=O)CNC1=O [TP1] (WGFIYKTLK[Dha][Dha]G; linker N-C via X1)
binding to TNIK in the presence of ATP (TNIK [3]): bonded to TNIK in the presence of the saturated concentration of ATP

half-life (τ1/2) in human serum [5]: 88 h
stability in human serum, in words [5]: good stability
Structure (SMILES): C=C1NC(=O)[C@H](CO)NC(=O)[C@H](CSCC(N)=O)NC(=O)CNC(=O)[C@H](Cc2ccc(O)cc2)NC(=O)[C@H](C)NC(=O)[C@H](CO)NC(=O)[C@H](CC(=O)O)NC(=O)CNC(=O)[C@H](CC(C)C)NC(=O)[C@H](Cc2c[nH]c3ccccc23)NC(=O)[C@H](Cc2c[nH]c3ccccc23)NC(=O)c2ccc(-c3nc(C(=O)OC)cs3)nc2-c2csc1n2 [TP4] (WWLGDSAYGC(Cam)S; linker N-C via X1)

half-life (τ1/2) in human serum [5]: 14 h
stability in human serum, in words [5]: good stability
Structure (SMILES): C=C1NC(=O)CNC(=O)[C@H](CC(N)=O)NC(=O)[C@H](CC(C)C)NC(=O)CNC(=O)[C@H](CCCCN)NC(=O)[C@H](C)NC(=O)[C@H]([C@@H](C)CC)NC(=O)[C@H](CO)NC(=O)[C@H](Cc2c[nH]c3ccccc23)NC(=O)[C@H](C)NC(=O)[C@H](Cc2c[nH]c3ccccc23)NC(=O)c2ccc(-c3nc(C(=O)OC)cs3)nc2-c2csc1n2 [TP8] (WAWSIAKGLNG; linker N-C via X1)
binding to TNIK in the presence of ATP (TNIK [3]): bonded to TNIK in the presence of the saturated concentration of ATP

Structure (SMILES): C=C1NC(=O)CNC(=O)[C@H](CCCNC(=N)N)NC(=O)[C@H](Cc2ccc(O)cc2)NC(=O)[C@H](CC(C)C)NC(=O)[C@H](CO)NC(=O)[C@H](CCCCN)NC(=O)[C@H](CC(N)=O)NC(=O)CNC(=O)[C@H](Cc2ccccc2)NC(=O)[C@H](Cc2c[nH]c3ccccc23)NC(=O)[C@H](Cc2c[nH]c3ccccc23)NC(=O)c2ccc(-c3nc(C(=O)NCCC(=O)NCCOCCOCCCCCCCl)cs3)nc2-c2csc1n2 [TP14-ct] (WWFGNKSLYRG; linker N-C via X2)
cytoplasmic uptake (CAPA), in words (HEK293H cells): taken up into HEK293H cells at a concentration of a single-digit μM

stability in human serum, in words [5]: short half-life
cytoplasmic uptake (CAPA), in words (HEK293H cells): efficient cytoplasmic translocation
residual amount in the presence of GSH ([4]; 10 mM GSH, after 24 hours): > 95%
reactivity with GSH, in words [4]: stable
Structure (SMILES): C=C1NC(=O)CNC(=O)[C@H](CCCNC(=N)N)NC(=O)[C@H](Cc2ccc(O)cc2)NC(=O)[C@H](CC(C)C)NC(=O)[C@H](CO)NC(=O)[C@H](CCCCN)NC(=O)[C@H](CC(N)=O)NC(=O)CNC(=O)[C@H](Cc2ccccc2)NC(=O)[C@H](Cc2c[nH]c3ccccc23)NC(=O)[C@H](Cc2c[nH]c3ccccc23)NC(=O)c2ccc(-c3nc(C(=O)OC)cs3)nc2-c2csc1n2 [TP14] (WWFGNKSLYRG; linker N-C via X1)
binding to TNIK in the presence of ATP (TNIK [3]): bonded to TNIK in the presence of the saturated concentration of ATP

Structure (SMILES): C=C1NC(=O)c2csc(n2)[C@H]([C@@H](C)O)NC(=O)[C@H](C)NC(=O)[C@H]([C@@H](C)CC)NC(=O)[C@H](CCCNC(=N)N)NC(=O)CNC(=O)[C@H](CCCNC(=N)N)NC(=O)[C@H]([C@@H](C)O)NC(=O)[C@H](CCCNC(=N)N)NC(=O)[C@H]([C@@H](C)CC)NC(=O)[C@H]([C@@H](C)O)NC(=O)[C@H](Cc2c[nH]c3ccccc23)NC(=O)c2ccc(-c3nc(C(=O)NCCC(=O)NCCOCCOCCCCCCCl)cs3)nc2-c2csc1n2 [TP15-ct]
cytoplasmic uptake (CAPA), in words (HEK293H cells): taken up into HEK293H cells at a concentration of a single-digit μM
